From the NIST ThermoML archive (doi:10.1016/j.fluid.2014.10.029)

Conditions: for mass density: 101.33 kPa, Liquid, Buoyancy - hydrostatic balance with magnetic suspension - one sinker

CCCCCCCn1cc[n+](C)c1.F[P-](F)(F)(F)(F)F [1-heptyl-3-methylimidazolium hexafluorophosphate]
Conditions	mass density [kg/m3]
292.97 K	1266.43
298.16 K	1262.6
303.16 K	1258.82
308.22 K	1254.84
313.19 K	1250.97
318.05 K	1247.4
323.09 K	1243.43
328.16 K	1239.71
333.36 K	1235.76
337.82 K	1232.14
343.31 K	1228.66
348.05 K	1224.36
352.96 K	1220.98
357.92 K	1217.32
364.45 K	1212.58

surface tension liquid-gas [mN/m]
Conditions	Ring tensiometer	Wilhemly plate
293.23 K	36.05	–
293.26 K	–	36.06
298.15 K	35.87	35.89
303.13 K	35.6	–
303.15 K	–	35.6
308.2 K	35.31	–
308.21 K	–	35.41
313.22 K	–	35.13
313.26 K	35.14	–
318.05 K	–	34.87
318.08 K	34.74	–
323.21 K	34.65	–
323.22 K	–	34.65
328.1 K	–	34.39
328.18 K	34.3	–
333.37 K	34.07	34.13
337.89 K	–	33.91
338.05 K	33.75	–
343.31 K	33.7	–
343.34 K	–	33.68
348.16 K	–	33.32
348.26 K	33.24	–
353.04 K	–	33.18
357.99 K	33.04	–
358.04 K	–	32.96
364.54 K	32.62	–
364.61 K	–	32.67

CCCCCn1cc[n+](C)c1.F[P-](F)(F)(F)(F)F [1-methyl-3-pentylimidazolium hexafluorophosphate]
surface tension liquid-gas [mN/m]
Conditions	Ring tensiometer	Wilhelmy plate
262.89 K	43.04	–
268.06 K	42.78	–
273.2 K	–	42.46
277.73 K	–	42.19
277.78 K	42.23	–
283.1 K	41.97	–
283.17 K	–	41.95
288.28 K	–	41.53
288.29 K	41.76	–
292.81 K	41.54	41.49
298.19 K	–	41.24
298.2 K	41.35	–
303.11 K	40.96	–
303.12 K	–	40.94
308.14 K	–	40.68
308.16 K	40.75	–
313.06 K	40.41	40.4
317.95 K	–	40.17
317.98 K	40.23	–
323.19 K	40.04	–
323.2 K	–	39.86
328.3 K	–	39.63
328.37 K	39.69	–
333.51 K	39.41	–
333.52 K	–	39.36
338.58 K	39.09	–
338.6 K	–	39.1
342.99 K	38.8	–
343 K	–	38.86
348.07 K	38.64	–
348.11 K	–	38.64
353.27 K	38.38	–
353.3 K	–	38.4
357.97 K	–	38.11
358.34 K	38.1	–
362.98 K	–	37.85

Conditions	mass density [kg/m3]
267.86 K	1351.91
273.05 K	1348.4
283.12 K	1339.58
288.38 K	1335.51
292.83 K	1332.19
298.17 K	1328.15
303.2 K	1324.24
308.22 K	1318.91
313.1 K	1315.32
317.98 K	1311.51
323.18 K	1307.37
328.4 K	1303.77
333.5 K	1299.9
338.86 K	1295.93
342.93 K	1292.1
348 K	1288.64
353.25 K	1284.49
358.27 K	1281.15
362.73 K	1277.18

CCCCn1cc[n+](C)c1C.F[P-](F)(F)(F)(F)F [1-butyl-2,3-dimethylimidazolium hexafluorophosphate]
Wilhelmy plate
Conditions	surface tension liquid-gas [mN/m]
298.17 K	44.42
313.07 K	43.73
323.27 K	43.16
333.13 K	42.6
338.38 K	42.38
343.51 K	42.13
348.43 K	41.89
353.08 K	41.68
358.76 K	41.41
364.84 K	41.11

CCCCCCCCCn1cc[n+](C)c1.F[P-](F)(F)(F)(F)F [1-nonyl-3-methylimidazolium hexafluorophosphate]
surface tension liquid-gas [mN/m]
Conditions	Ring tensiometer	Wilhelmy plate
288.14 K	–	33.2
288.18 K	33.64	–
293.07 K	33.26	32.96
298.13 K	32.86	–
298.16 K	–	32.7
303.11 K	–	32.48
303.12 K	32.8	–
308.11 K	–	32.27
308.13 K	32.71	–
313.16 K	–	31.99
313.19 K	32.4	–
318.03 K	–	31.76
318.06 K	32.17	–
323.07 K	–	31.51
323.1 K	31.89	–
328 K	31.7	–
328.04 K	–	31.25
332.93 K	31.43	–
332.95 K	–	30.99
338.37 K	–	30.75
338.49 K	31.11	–
343.34 K	–	30.5
343.59 K	30.88	–
347.87 K	–	30.23
347.9 K	30.57	–
352.81 K	–	29.98
352.87 K	30.32	–
357.85 K	–	29.76
358.12 K	30.14	–
365.11 K	29.71	–
365.22 K	–	29.4

Conditions	mass density [kg/m3]
293.11 K	1216.29
298.18 K	1212.6
303.15 K	1209.57
308.14 K	1205.42
313.21 K	1201.39
318.08 K	1197.66
323.13 K	1193.94
328.02 K	1190.39
332.95 K	1186.82
338.45 K	1183.02
343.45 K	1179.31
348.02 K	1176.28
352.94 K	1172.76
358.11 K	1168.91
365.13 K	1163.68

CCCn1cc[n+](C)c1.F[P-](F)(F)(F)(F)F [1-methyl-3-propylimidazolium hexafluorophosphate]
surface tension liquid-gas [mN/m]
Conditions	Ring tensiometer	Wilhelmy plate
293.21 K	–	48.34
293.23 K	47.98	–
298.2 K	–	47.99
298.23 K	47.77	–
303.01 K	–	47.68
303.04 K	48.03	–
308.2 K	–	47.36
308.21 K	47.15	–
313.17 K	–	47.06
313.22 K	47.18	–
318.07 K	–	46.74
318.17 K	46.99	–
323.11 K	–	46.4
323.22 K	46.76	–
328.22 K	46.09	–
328.25 K	–	46.06
333.39 K	45.83	–
333.45 K	–	45.73
338.46 K	45.38	45.41
343.28 K	44.84	–
343.3 K	–	45.14
348.2 K	44.8	–
348.25 K	–	44.78
352.68 K	–	44.5
352.76 K	44.38	–
358.22 K	43.88	–
358.24 K	–	44.23
364.96 K	–	43.78
365.07 K	43.64	–

CCCC[n+]1cccc(C)c1.F[P-](F)(F)(F)(F)F [1-butyl-3-methylpyridinium hexafluorophosphate]
Wilhelmy plate
Conditions	surface tension liquid-gas [mN/m]
323.02 K	43.24
327.6 K	42.96
333.18 K	42.58
338.24 K	42.24
343.75 K	41.89
348.09 K	41.63
353.61 K	41.3
358.09 K	40.94
364.84 K	40.51
